In PubChem BioAssay (NCI):
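These data come from cells grown in 96-well plates and exposed to compound for 48 hours at five concentrations. At the GI50, growth is halved. TGI is the concentration that stops growth completely.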

Tests used:
Assay in all cases: growth of human tumour cells (NCI), 48 h
CCRF-CEM leukemia = test system: CCRF-CEM leukemia
SN12C renal = test system: SN12C renal
COLO 205 colon = test system: COLO 205 colon
NCI-H460 lung = test system: NCI-H460 lung
OVCAR-5 ovarian = test system: OVCAR-5 ovarian
CAKI-1 renal = test system: CAKI-1 renal
HCT-15 colon = test system: HCT-15 colon
HT29 colon = test system: HT29 colon
NCI-H522 lung = test system: NCI-H522 lung
NCI/ADR-RES ovarian = test system: NCI/ADR-RES ovarian

Row | SMILES | GI50 (CCRF-CEM leukemia) [µM] | TGI (CCRF-CEM leukemia) [µM] | GI50 (SN12C renal) [µM] | TGI (SN12C renal) [µM] | GI50 (COLO 205 colon) [µM] | TGI (COLO 205 colon) [µM] | GI50 (NCI-H460 lung) [µM] | TGI (NCI-H460 lung) [µM] | GI50 (OVCAR-5 ovarian) [µM] | TGI (OVCAR-5 ovarian) [µM] | GI50 (CAKI-1 renal) [µM] | TGI (CAKI-1 renal) [µM] | GI50 (HCT-15 colon) [µM] | TGI (HCT-15 colon) [µM] | GI50 (HT29 colon) [µM] | TGI (HT29 colon) [µM] | GI50 (NCI-H522 lung) [µM] | TGI (NCI-H522 lung) [µM] | GI50 (NCI/ADR-RES ovarian) [µM] | TGI (NCI/ADR-RES ovarian) [µM]
1 | CC(=O)Oc1ccc2c(c1)[C@@]1(C)CCCC(C)(C)[C@@H]1CC2 | 87.4 | > 100 | 18.6 | 33.1 | 21.9 | 53.6 | 27.5 | 90.5 | 22.3 | 40.5 | 28 | > 100 | 19.5 | 37.3 | 31.7 | > 100 | 24.2 | 69.2 | 26 | 49.9
2 | O=C(Nc1cccc(-n2cc(-c3ccncc3)c(-c3ccc(O)c(Cl)c3)n2)c1)c1ccc2c(c1)OCCO2 | 3.75 | > 100 | 55.7 | > 100 | 89.2 | > 100 | 6.2 | > 100 | > 100 | > 100 | 6.34 | > 100 | 3.7 | > 100 | 7.03 | > 100 | 6.25 | > 100 | 5.7 | > 100
3 | Cc1cc(C(=O)Nc2n[nH]c3ccccc23)n[nH]1 | > 100 | > 100 | > 100 | > 100 | > 100 | > 100 | > 100 | > 100 | 67.9 | > 100 | 90.5 | > 100 | > 100 | > 100 | > 100 | > 100 | > 100 | > 100 | > 100 | > 100
4 | COc1cccc(-c2nn(-c3ccccc3)cc2-c2ccnc(NCCCNC(=O)c3cccc(C(F)(F)F)c3)c2)c1 | 6.11 | > 100 | 6.06 | 38.5 | 3.33 | 12.4 | 4.03 | 18.2 | 11.3 | 48.7 | 6.27 | 32.5 | 3.4 | 15.6 | 3.61 | 13.6 | 2.58 | 12.2 | 3.54 | 16.8
5 | C[C@]12CC[C@@H]3c4ccc(O)cc4CC[C@H]3[C@@H]1CC[C@@H]2NS(=O)(=O)c1ccc(Br)cc1 | 3.14 | > 100 | 1.79 | 3.5 | 2.12 | 4.04 | 2.15 | 4.81 | 2.31 | 6.03 | 3.12 | 10.2 | – | – | 2.31 | 4.63 | – | – | 2.81 | 8.79
6 | O=C(O)c1cc2ccccc2c2c3c(ccc12)OCO3 | – | – | 174 | > 1000 | 171 | 368 | 265 | > 1000 | 279 | > 1000 | 185 | 761 | 245 | > 1000 | 281 | 791 | – | – | 210 | 754
7 | Nc1nonc1-c1nc2ccccc2n1Cc1ccc(F)cc1 | – | – | – | – | 5.02 | > 100 | 4.25 | > 100 | > 100 | > 100 | 3.48 | > 100 | 3.6 | > 100 | 3.55 | > 100 | 4.42 | > 100 | 4.16 | > 100
8 | O=S(=O)(NCCNc1nccc(-c2c(-c3ccc(F)c(O)c3)nc3sccn23)n1)c1ccc(Cl)cc1 | – | – | 1.54 | > 50 | – | – | 1.93 | > 50 | 7.31 | > 50 | 1.99 | 10.4 | 1.67 | > 50 | – | – | 2.08 | 18.6 | 1.79 | 17.5
9 | COc1ccc(C(C)c2cc(OC)c(OC)c(OC)c2)cc1 (configuration not stated) | 0.182 | > 50 | 0.546 | > 50 | 0.109 | 0.325 | 0.177 | > 50 | 0.291 | > 50 | – | – | 0.088 | > 50 | 0.107 | > 50 | 0.133 | > 50 | 0.0574 | > 50
10 | CCCCCCCCCCCCCCCCCCNCc1ccc(Cl)cc1 | 2.69 | 8.66 | 3.63 | 13.8 | 1.96 | 4 | 2.05 | 4 | 2.65 | 12.1 | – | – | 1.93 | 4.71 | 1.73 | 3.46 | 2.52 | 8.73 | 3.58 | 18.2
11 | C=C1c2ccccc2C(=O)c2c1c1c(C(=O)OC)c(OC(=O)OCc3ccc([N+](=O)[O-])cc3)ccc1n2Cc1ccccc1 | 1.78 | 6.83 | 11 | 42.6 | 32.4 | > 100 | 26.8 | 88.6 | 17.7 | 49.5 | 20.3 | 58.2 | 34.3 | > 100 | – | – | 6.83 | 38.6 | 3.46 | 15
12 | N#CC1=C(N)NC(=S)NC1c1ccc(-c2ccc(-c3nc4ccccc4o3)cc2)s1 (configuration not stated) | – | – | 10.6 | 28.4 | 11.3 | 33.4 | 7.58 | 15.9 | 16 | 34.6 | 10.1 | 36.4 | 12.3 | > 50 | – | – | 9.65 | 20.8 | 12.1 | 30.1
13 | CC[C@@]1(OC(=O)C(N)CCCCN)C(=O)OCc2c1cc1n(c2=O)Cc2cc3ccccc3nc2-1 (some centres not stated) | – | 0.115 | – | 1.63 | – | 3.39 | – | 0.372 | – | 3.86 | – | 0.158 | – | 15.6 | – | 11.4 | – | 2.39 | – | –
14 | CCC/C=C\C=C\C1(NS(=O)(=O)c2ccc(C)cc2)CCC(C(C)(C)C)CC1 (configuration not stated) | – | 24.2 | – | 23.5 | – | 28.1 | – | 36.2 | – | 43.8 | – | 61.9 | – | 43.8 | – | 30.2 | – | 12.1 | – | –
15 | CCC1C(C)C=NN1c1nc(N)nc(C(C#N)=Nc2ccc(N(C)C)cc2)n1 (configuration not stated) | 6.11 | 20.4 | 9.76 | 18.9 | – | – | 11.1 | 24.5 | 10.2 | 26.6 | 9.06 | 20.8 | 15.6 | > 50 | 16.5 | > 50 | > 50 | > 50 | 9.88 | 22
16 | O=C(O)C1CC=CCC1C(=O)Nc1cccc(O)c1 (configuration not stated) | – | – | – | > 100 | – | > 100 | – | > 100 | – | > 100 | – | > 100 | – | > 100 | – | > 100 | – | > 100 | – | > 100
17 | CN(C)CCC(/C=C/c1ccccc1)=N\Nc1ccc(Cl)c(Cl)c1 | – | 10.1 | – | 13.7 | – | 7.23 | – | 4.25 | – | 15.6 | – | 7.03 | – | 12.9 | – | 5.01 | – | 4.41 | – | –
18 | COc1ccc(/C(C)=N/NC(=O)CSc2nc3ccccc3c(=O)n2CCc2ccc(S(N)(=O)=O)cc2)cc1 | 4.44 | > 100 | 1.89 | 3.75 | – | – | 2.03 | 3.81 | 1.61 | 3.23 | 2.07 | 4.53 | 4.7 | 63.7 | 1.95 | 3.7 | 2.26 | 6.75 | 11.7 | > 100
19 | O=[P+](O)c1ccccn1 | – | > 100 | – | > 100 | – | > 100 | – | > 100 | – | > 100 | – | > 100 | – | > 100 | – | > 100 | – | > 100 | – | –
20 | C1OC1CN1CCN(CC2CO2)CC1 (configuration not stated) | – | > 100 | – | > 100 | – | > 100 | – | > 100 | – | > 100 | – | > 100 | – | > 100 | – | > 100 | – | > 100 | – | –
21 | Cc1cccc(C)c1NC(=O)CCc1nnc2s/c(=C\c3ccc(N(C)C)cc3)c(=O)n12 | – | > 100 | – | > 100 | – | > 100 | – | > 100 | – | > 100 | – | > 100 | – | > 100 | – | > 100 | – | > 100 | – | –
22 | COCCOCCOCc1n(Cc2ccc3ccccc3c2)c2ccccc2[n+]1Cc1ccc2ccccc2c1 | 0.488 | 2.29 | 0.372 | 1.46 | 0.27 | 1.15 | 0.483 | 1.85 | 0.927 | 2.26 | – | – | 1.69 | 3.36 | 0.321 | 1.34 | 0.303 | 1.3 | 15.1 | 44.3
23 | S=c1o[nH]c(-c2ccccc2)c1C=Nc1ccccc1 | – | > 100 | – | > 100 | – | > 100 | – | > 100 | – | > 100 | – | > 100 | – | > 100 | – | > 100 | – | > 100 | – | –
24 | O=C1/C(=C/c2ccc3c(c2)OCCO3)CCC/C1=C\c1ccc2c(c1)OCCO2 | – | > 100 | – | 54.9 | – | 46.8 | – | 65.6 | – | > 100 | – | > 100 | – | > 100 | – | 52 | – | 92.3 | – | –
